Substitutions are numbered along the chain they refer to.
Columns and labels:
W43R mutant of HγD = target: T1, W43R mutant of HγD (Homo sapiens, UniProt P07320, W43R); test: Kinetic turbidity assay at 42 °C of W43R mutant; type: biochemical; settings: for Effect on aggregation of W43R mutant: 0–500 μM, 42 °C for 200 min, G at 400 and 500 μM; for inhibition at 500 µM: 500 μM drug, 42 °C, 200 min, read-out: Inhibition of aggregation (%) W43R
T1 construct: made in house; host or cells: E. coli BL21(DE3) pLysS
T1 sequence (P07320 1-174 W43R): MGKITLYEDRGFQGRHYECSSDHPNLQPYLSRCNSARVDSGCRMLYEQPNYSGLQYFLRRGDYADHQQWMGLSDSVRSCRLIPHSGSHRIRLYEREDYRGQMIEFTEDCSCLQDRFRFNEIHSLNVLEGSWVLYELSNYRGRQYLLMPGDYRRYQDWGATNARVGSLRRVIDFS
Method: (§1) Aggregation kinetics assays at 600 nm in the presence of varying concentrations (0, 100, 200, 300, 400, and 500 μM) of our selected drugs were also performed on mutants of HγD (W43R, W42Q, R14C, and R58H) and MγS (F9S) at a concentration of 1 mg/ml in 50 mM K3PO4 buffer (pH 7.2) in a total volume of 100 μl. WT-HγD and WT-MγS crystallin served as controls for their respective mutant versions. For W43R mutant, aggregation assay was done at 42 °C for a total of 200 min. Absorbance was monitored every 10 min. For R14C and R58H mutants, end-point turbidity assay was done at 72 °C for 20 min. […] All the experiments were run in duplicates or triplicates.

MγS = target: T2, MγS (Mus musculus, UniProt O35486); test: Steady-state tryptophan fluorescence quenching, MγS; type: binding
T2 construct: made in house; host or cells: E. coli BL21(DE3) pLysS, pET17b vector
T2 sequence (O35486 1-178): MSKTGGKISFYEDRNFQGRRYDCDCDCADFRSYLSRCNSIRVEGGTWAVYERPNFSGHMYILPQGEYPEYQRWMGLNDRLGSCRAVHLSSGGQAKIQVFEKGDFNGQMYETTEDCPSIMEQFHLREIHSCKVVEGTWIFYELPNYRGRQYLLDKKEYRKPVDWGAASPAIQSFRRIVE
Method: Tryptophan fluorescence can be used for studying conformational changes resulting from protein–drug interactions ([44]). Fluorescence quenching of aromatic fluorophores in HγD and MγS by drugs C and G at three different temperatures (25, 30, and 37 °C) was studied in the presence of varying concentrations of drug C and G (0–250 μM). As shown in Figs. S5A and S6A, both HγD and MγS have a strong emission peak at 330 nm when excited at 295 nm. In both cases, quenching occurs with gradual addition of C and G at all three temperatures. Overall, quenching of Trp fluorescence emission is at highest at 25 °C (Figs. S5A and S6A) followed by 30 °C and lowest at 37 °C. […] The slope of plot Fo/F versus [Q] gives Ksv (Figs. S5B and S6B), whereas Kb is obtained from intercept of plot log (Fo/F − 1) versus log[Q] (Figs. S5C and S6C). […] For drug M, Kb values are of the order 10^2 M^−1 only. Fluorescence quenching can be either because of random collision between the molecules (dynamic interaction) or because of actual affinity between a protein pocket and drug (static interaction). Dynamic interactions are weaker and nonspecific in nature, whereas static interactions are stronger and more specific ([47]). For more information on the type of interaction, Kq was calculated and compared with the standard value of 2 × 10^10 M^−1s^−1, which is the maximum scatter collision quenching constant of various quenchers with biopolymers ([48]). […] Furthermore, the differential response of Ksv toward temperature change also clarifies the type of quenching. In static quenching, Ksv decreases with an increase in temperature because of the formation of complex with protein, which undergoes dissociation on increasing temperature.
To gauge the strength of the major forces involved in drug–protein complex formation, change in free energy was calculated using Gibbs–Helmholtz equation (Equation 3).(3) ΔG=-RTlnKb ([50]) where, R is gas constant and its value is […], T is absolute temperature (Kelvin) and Kb is binding constant whose value is already calculated using Equation 2. […] Free energy changes are negative at all three temperatures, being maximal at 25 °C. For C, G, and M interaction with HγD, ΔG values were −6.4, −7.9, and −1.9 kcal/mol (at 25 °C), that is, similar to those obtained by molecular docking as described later. These values also reflect the fact that drug M had the least protective effect on unfolding or aggregation of various γ-crystallins (Figs. 2 and S4).
All the steady-state fluorescence measurements were recorded on Fluoromax Spectrofluorometer (Horiba Scientific). For fluorescence quenching measurements, 10 μM of both HγD and MγS crystallins were titrated with varying concentrations of drugs C, G, and M (0–250 μM) at 25, 30, and 37 °C. These samples were excited at 295 nm, and the fluorescence emission was collected from 310 to 410 nm.

WT-MγS = target: T3, WT-MγS (Mus musculus, UniProt O35486); test: Thermal unfolding (Tm), WT-MγS; type: biochemical; settings: 10 μM protein, 100 μM drug; Con 70
T3 construct: made in house; host or cells: E. coli BL21(DE3) pLysS, pET17b vector
T3 sequence (O35486 1-178): T2 sequence (O35486 1-178)
Method: (§2) Thermal denaturation study was monitored using fluorescence spectroscopy. Protein solutions (10 μM) in the presence and absence of drugs or bis-ANS (100 μM) were heated continuously from 30 to 95 °C, and the fluorescence data were collected every 5 °C after 1 min equilibration at the given temperature. Unfolding data were fit to Greene and Pace’s two-state model ([82]) using GraphPad Prism software (GraphPad Software, Inc).

OPJ-MγS = target: T4, OPJ-MγS (Mus musculus, UniProt O35486, F10S); test: Thermal unfolding (Tm), OPJ-MγS; type: biochemical; settings: 10 μM protein, 100 μM drug; for Tm (°C) OPJ-MGS N-ter: Con 48; for Tm (°C) OPJ-MGS C-ter: Con 63
T4 construct: made in house; host or cells: E. coli BL21(DE3) pLysS, pET17b vector
T4 sequence (O35486 1-178 F10S): T2 sequence (O35486 1-178) with F10S
Method: as §2

R14C mutant of HγD = target: T5, R14C mutant of HγD (Homo sapiens, UniProt P07320, R15C); test: End-point turbidity assay (72 °C, 20 min) of R14C mutant; type: biochemical; settings: 500 μM drug, 5 mM DTT, read-out: Inhibition of aggregation (%) R14C
T5 construct: made in house; host or cells: E. coli BL21(DE3) pLysS
T5 sequence (P07320 1-174 R15C): T1 sequence (P07320 1-174 W43R) with R15C, R43W
Method: as §1

SMILES | Effect on aggregation of W43R mutant (W43R mutant of HγD) | inhibition at 500 µM (W43R mutant of HγD) [%] | KSV (MγS; 25 °C) [M^−1 ×10^3] | Kq (MγS; 25 °C) [M^−1 s^−1 ×10^12] | ΔG (MγS; 25 °C) [kcalM^−1] | KSV (MγS; 30 °C) [M^−1 ×10^3] | Kq (MγS; 30 °C) [M^−1 s^−1 ×10^12] | ΔG (MγS; 30 °C) [kcalM^−1] | KSV (MγS; 37 °C) [M^−1 ×10^3] | Kq (MγS; 37 °C) [M^−1 s^−1 ×10^12] | ΔG (MγS; 37 °C) [kcalM^−1] | Tm (°C) WT-MGS (WT-MγS) [°C] | Tm (°C) OPJ-MGS N-ter (OPJ-MγS) [°C] | Tm (°C) OPJ-MGS C-ter (OPJ-MγS) [°C] | inhibition at 500 µM (R14C mutant of HγD) [%]
Cc1cc(C(C#N)c2ccc(Cl)cc2)c(Cl)cc1NC(=O)c1cc(I)cc(I)c1O (stereo not shown) [drug C, Closantel] | worsened the aggregation | -34 | 4.828 | 0.847 | −7.0 | 4.249 | 0.745 | −6.2 | 2.988 | 0.524 | −4.1 | 72 | 50 | 69 | 68
CC(C)=CCC[C@]1(C)C=Cc2c(O)c3c(c(CC=C(C)C)c2O1)O[C@]12C(=C[C@@H]4C[C@H]1C(C)(C)O[C@@]2(C/C=C(/C)C(=O)O)C4=O)C3=O [drug G, Gambogic acid] | protected the mutant against aggregation | 52 | 7.283 | 1.37 | – | 8.034 | 1.4 | −5.6 | 4.905 | 0.86 | −6.5 | 73 | 50 | 70 | 55
O=C(O)CCCCCCCCCCCC[C@@H]1C=CCC1 [drug M, Chaulmoogric acid] | no effect | 14 | 0.793 | 0.14 | −2.7 | 0.733 | 0.13 | −2.6 | 0.491 | – | −2.2 | 68 | 48 | 63 | 18

— article PMC9525908, “α-Crystallin chaperone mimetic drugs inhibit lens γ-crystallin aggregation: Potential role for cataract prevention” (The Journal of Biological Chemistry, 2022)
